{
  "source": "paper PMC11239830",
  "about": "“Synthetic macrolides overcoming MLSBK-resistant pathogens” (Cell Discovery, 2024)",
  "assay_in_all_cases": "MIC, broth microdilution",
  "key": {"H. influenzae": {"tested_on": "H. influenzae", "format": "cell-based, Haemophilus influenzae", "how_it_was_run": "(§1)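 Minimum inhibitory concentrations were measured by broth microdilution following CLSI guidelines. Plates were incubated at 37 °C for 16–20 h before results were read and recorded, and each determination was repeated at least three times.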"}, "S. pneumoniae": {"tested_on": "S. pneumoniae", "format": "cell-based, Streptococcus pneumoniae", "how_it_was_run": "as §1"}, "M. catarrhalis": {"tested_on": "M. catarrhalis", "format": "cell-based, Moraxella catarrhalis", "conditions": "M. catarrhalis 13L332, Ery-S", "method": "MICs were determined by the microdilution method according to the Clinical and Laboratory Standards Institute guidelines. Briefly, the stock solution of compounds and the reference antibiotics were diluted 2-fold in sterile 96-well plates with cation-adjusted Mueller-Hinton broth, and mixed with CAMHB-containing bacteria to give a final inoculum of 5 × 10^5 CFU/mL for broth microdilution experiments. […] Finally, the 96-well plates were incubated at 37 °C for 16–20 h to observe and record the results. The lowest concentration at which no bacterial growth could be observed visually was identified as the MICs of the compounds. The assay for MICs was replicated at least three times."}, "S. pyogenes": {"tested_on": "S. pyogenes", "format": "cell-based, Streptococcus pyogenes", "how_it_was_run": "as §1"}, "S. aureus": {"tested_on": "S. aureus", "format": "cell-based, Staphylococcus aureus", "how_it_was_run": "as §1"}, "[1]": {"conditions": "Haemophilus influenzae, ATCC49247, H. influenzae ATCC49247, Azi-S, read-out: MIC"}, "[2]": {"conditions": "Streptococcus pneumoniae, ATCC49619, S. pneumoniae ATCC49619, Ery-S, read-out: MIC"}, "[3]": {"conditions": "Streptococcus pneumoniae, S. pneumoniae 05O173, c-ermB, mef, read-out: MIC"}, "[4]": {"conditions": "Streptococcus pneumoniae, S. pneumoniae 07P390, c-ermB, read-out: MIC"}, "[5]": {"conditions": "Moraxella catarrhalis, read-out: MIC"}, "[6]": {"conditions": "Streptococcus pyogenes, S. pyogenes 12-206, c-ermTR, read-out: MIC"}, "[7]": {"conditions": "S. pneumoniae 05O173, c-ermB, mef"}},
  "note": "Like-named read-outs stand apart in the source and are kept apart here.",
  "data": [
    {"smiles": "CC[C@H]1OC(=O)[C@H](C)[C@@H](OC(=O)NCCCCOCCC#Cc2ccc3c(=O)c(C(=O)O)cn(C)c3c2)[C@H](C)[C@@H](O[C@@H]2O[C@H](C)C[C@H](N(C)C)[C@H]2O)[C@](C)(OC)C[C@@H](C)C(=O)[C@H](C)[C@H]2NC(=O)O[C@@]21C", "note": "[96g]", "values": [
      {"measurement": "MIC", "setting": "H. influenzae; [1]", "result": 2, "unit": "µg/mL"},
      {"measurement": "MIC", "setting": "S. pneumoniae; [2]", "result": "≤ 0.008", "unit": "µg/mL"},
      {"measurement": "MIC", "setting": "S. pneumoniae; [3]", "result": 8, "unit": "µg/mL"},
      {"measurement": "MIC", "setting": "S. pneumoniae; [4]", "result": 0.25, "unit": "µg/mL"},
      {"measurement": "MIC", "setting": "M. catarrhalis; [5]", "result": 0.5, "unit": "µg/mL"},
      {"measurement": "MIC", "setting": "S. pyogenes; [6]", "result": 0.5, "unit": "µg/mL"}
    ]},
    {"smiles": "CC[C@H]1OC(=O)[C@H](C)[C@@H](O[C@H]2C[C@@](C)(OC)[C@@H](O)[C@H](C)O2)[C@H](C)[C@@H](O[C@@H]2O[C@H](C)C[C@H](N(C)C)[C@H]2O)[C@](C)(OC)C[C@@H](C)C(=O)[C@H](C)[C@@H](O)[C@]1(C)O", "note": "[clarithromycin, reference compound]", "values": [
      {"measurement": "MIC", "setting": "H. influenzae; [1]", "result": 16, "unit": "µg/mL"},
      {"measurement": "MIC", "setting": "S. pneumoniae; S. pneumoniae 07P390, c-ermB", "result": 512, "unit": "µg/mL"},
      {"measurement": "MIC", "setting": "S. pneumoniae; S. pneumoniae 21C315, Clinical, c-ermB", "result": "> 64", "unit": "µg/mL"},
      {"measurement": "MIC", "setting": "S. pneumoniae; S. pneumoniae 21D016, Clinical, c-ermB, mef", "result": "> 64", "unit": "µg/mL"},
      {"measurement": "MIC", "setting": "S. pneumoniae; S. pneumoniae 21D020, Clinical, c-ermB, mef", "result": "> 64", "unit": "µg/mL"},
      {"measurement": "MIC", "setting": "S. pneumoniae; S. pneumoniae 21M277, Clinical, c-ermB", "result": "> 64", "unit": "µg/mL"},
      {"measurement": "MIC", "setting": "S. pneumoniae; S. pneumoniae 21Q352, Clinical, i-MLSB", "result": 16, "unit": "µg/mL"},
      {"measurement": "MIC", "setting": "S. pneumoniae; S. pneumoniae 21Q353, Clinical, i-MLSB", "result": 8, "unit": "µg/mL"},
      {"measurement": "MIC", "setting": "S. pneumoniae; S. pneumoniae 21W257, Clinical, c-ermB, mef", "result": "> 64", "unit": "µg/mL"},
      {"measurement": "MIC", "setting": "S. pneumoniae; S. pneumoniae 21X435, Clinical", "result": 0.12, "unit": "µg/mL"},
      {"measurement": "MIC", "setting": "S. pneumoniae; S. pneumoniae ATCC49619", "result": 0.12, "unit": "µg/mL"},
      {"measurement": "MIC", "setting": "S. pneumoniae; Streptococcus pneumoniae, S. pneumoniae PU09, mef, read-out: MIC", "result": 8, "unit": "µg/mL"},
      {"measurement": "MIC", "setting": "S. aureus; S. aureus 15B196, c-ermB", "result": 512, "unit": "µg/mL"},
      {"measurement": "MIC", "setting": "S. aureus; S. aureus ATCC29213", "result": 0.25, "unit": "µg/mL"},
      {"measurement": "MIC", "setting": "S. aureus; S. aureus PU32, Clinical, MRSA, i-ermA", "result": 16, "unit": "µg/mL"},
      {"measurement": "MIC", "setting": "M. catarrhalis; [5]", "result": 0.25, "unit": "µg/mL"},
      {"measurement": "MIC", "setting": "S. pyogenes; S. pyogenes 12-206, c-ermTR", "result": 512, "unit": "µg/mL"},
      {"measurement": "MIC", "setting": "S. pyogenes; S. pyogenes 21C303, Clinical, c-ermB", "result": "> 64", "unit": "µg/mL"},
      {"measurement": "MIC", "setting": "S. pyogenes; S. pyogenes 21D184, Clinical, c-ermB", "result": "> 64", "unit": "µg/mL"},
      {"measurement": "MIC", "setting": "S. pyogenes; S. pyogenes 21D199, Clinical, c-ermB", "result": "> 64", "unit": "µg/mL"},
      {"measurement": "MIC", "setting": "S. pyogenes; S. pyogenes 21D200, Clinical, c-ermB", "result": "> 64", "unit": "µg/mL"},
      {"measurement": "MIC", "setting": "S. pyogenes; S. pyogenes 21K003, Clinical, mef", "result": 2, "unit": "µg/mL"},
      {"measurement": "MIC", "setting": "S. pyogenes; S. pyogenes 21M063, Clinical, c-ermB", "result": "> 64", "unit": "µg/mL"},
      {"measurement": "MIC", "setting": "S. pyogenes; S. pyogenes 21W186, Clinical, c-ermTR", "result": "> 64", "unit": "µg/mL"},
      {"measurement": "MIC", "setting": "S. pyogenes; Streptococcus pyogenes, S. pyogenes 01-968, i-ermTR (Table S5), read-out: MIC", "result": 4, "unit": "µg/mL"}
    ]},
    {"smiles": "CC[C@H]1OC(=O)[C@H](C)[C@@H](OC(=O)NCCCCCCCCc2ccc3c(=O)c(C(=O)O)cn(C)c3c2)[C@H](C)[C@@H](O[C@@H]2O[C@H](C)C[C@H](N(C)C)[C@H]2O)[C@](C)(O)C[C@@H](C)CN(C)[C@H](C)[C@@H](O)[C@]1(C)O", "note": "[107g]", "values": [
      {"measurement": "MIC", "setting": "H. influenzae; H. influenzae ATCC49247, Azi-S", "result": 8, "unit": "µg/mL"},
      {"measurement": "MIC", "setting": "S. pneumoniae; [7]", "result": 128, "unit": "µg/mL"},
      {"measurement": "MIC", "setting": "S. pneumoniae; S. pneumoniae 07P390, c-ermB", "result": 4, "unit": "µg/mL"},
      {"measurement": "MIC", "setting": "S. pneumoniae; S. pneumoniae ATCC49619, Ery-S", "result": 0.25, "unit": "µg/mL"},
      {"measurement": "MIC", "setting": "M. catarrhalis", "result": 1, "unit": "µg/mL"},
      {"measurement": "MIC", "setting": "S. pyogenes; S. pyogenes 12-206, c-ermTR", "result": 8, "unit": "µg/mL"}
    ]},
    {"smiles": "CC[C@H]1OC(=O)[C@H](C)[C@@H](OC(=O)NCCCCCCCC#Cc2ccc3c(=O)c(C(=O)O)cn(C)c3c2)[C@H](C)[C@@H](O[C@@H]2O[C@H](C)C[C@H](N(C)C)[C@H]2O)[C@](C)(OC)C[C@@H](C)C(=O)[C@H](C)[C@H]2NC(=O)O[C@@]21C", "note": "[89g]", "values": [
      {"measurement": "MIC", "setting": "H. influenzae; [1]", "result": 8, "unit": "µg/mL"},
      {"measurement": "MIC", "setting": "S. pneumoniae; [2]", "result": "≤ 0.008", "unit": "µg/mL"},
      {"measurement": "MIC", "setting": "S. pneumoniae; [3]", "result": 16, "unit": "µg/mL"},
      {"measurement": "MIC", "setting": "S. pneumoniae; [4]", "result": 0.25, "unit": "µg/mL"},
      {"measurement": "MIC", "setting": "M. catarrhalis; [5]", "result": 1, "unit": "µg/mL"},
      {"measurement": "MIC", "setting": "S. pyogenes; [6]", "result": 1, "unit": "µg/mL"}
    ]},
    {"smiles": "CC[C@H]1OC(=O)[C@H](C)[C@@H](OC(=O)NCCCCCCCCc2ccc3c(=O)c(C(=O)O)cn(C)c3c2)[C@H](C)[C@@H](O[C@@H]2O[C@H](C)C[C@H](N(C)C)[C@H]2O)[C@](C)(OC)C[C@@H](C)C(=O)[C@H](C)[C@H]2NC(=O)O[C@@]21C", "note": "[90g]", "values": [
      {"measurement": "MIC", "setting": "H. influenzae; H. influenzae ATCC49247, Azi-S", "result": 4, "unit": "µg/mL"},
      {"measurement": "MIC", "setting": "S. pneumoniae; [7]", "result": 8, "unit": "µg/mL"},
      {"measurement": "MIC", "setting": "S. pneumoniae; S. pneumoniae 07P390, c-ermB", "result": 0.03, "unit": "µg/mL"},
      {"measurement": "MIC", "setting": "S. pneumoniae; S. pneumoniae ATCC49619, Ery-S", "result": "≤ 0.008", "unit": "µg/mL"},
      {"measurement": "MIC", "setting": "M. catarrhalis", "result": 2, "unit": "µg/mL"},
      {"measurement": "MIC", "setting": "S. pyogenes; S. pyogenes 12-206, c-ermTR", "result": 0.12, "unit": "µg/mL"}
    ]}
  ]
}
